Consider eight compounds from patent publication US4307106A, “Aminothiazoles” (Pfizer Inc., priority 1979, dated 1981).

Counter-ions that a name gives are not always drawn.

The test system of test [1] is carrageenin-induced rat foot edema. The test is described as follows: carrageenin-induced rat foot edema test. It counts as in vivo, rat (male albino). The following applies: 33 mg/kg, p.o., 3 hours after carrageenin, vs non-drug treated control. The procedure: The activity of the compounds of the present invention as anti-inflammatoryagents may be determined by pharmacological tests, for example the standard carrageenin-induced rat foot edema test using the general procedure described by C. A. Winter et. al., see Proceedings of the Society of Experimental Biology in Medicine, Volume 111, page 544 (1962). In this test, anti-inflammatory activity is determined as the percent inhibition of edema formation in the hind paw of male albino rats (generally weighing about 150 to 190 grams) in response to a sub-plantar injection of carrageenin. The carrageenin is injected as a 1% aqueous suspension 1 hour after oral administration of the drug, which is normally given in the form of an aqueous solution or suspension. Edema formation is then assessed 3 hours after the carrageenin injection by comparing the initial volume of the injected paw and the volume after a 3 hour period. The increase in volume 3 hours after carrageenin injection constitutes the individual response. Compounds are considered active if the response between the drug-treated animals (6 rats per group) and the control group, i.e. the animals receiving the vehicle alone, is found to be significant on comparison with the results afforded by standard compounds like acetylsalicyclic acid at 100 mg/kg or phenylbutazone at 33 mg/kg, both by the oral route of administration.
The anti-inflammatory activity of aminothiazoles of this invention was determined using the standard carrageenin-induced rat foot edema test, according to the procedure essentially as described by C. A. Winter etl. al., and reported in the Proceedings of the Society for Experimental Biology and Medicine, Vol. 111, p. 544 (1962). The compounds were administered orally in the form of their previously reported hydrohalide salts at a dose level of 33 mg/kg. The results obtained in this manner are presented in the table below in terms of the percent inhibition of edema formation afforded by each test compound as compared to the non-drug treated control (i.e., aqueous solution with no compound): […]
Background: Carrageenan injected into the paw causes an acute inflammation.

Another test relates to murine thymus cells. The test is described as follows: in vitro stimulation of lymphocyte proliferation of murine thymus cells cultured in the presence of Concanavalin A (lymphocyte stimulation assay, LSA). The following applies: Con A-stimulated thymus cells, 48 h at 37° C.; for LSA activity: highest 3H-thymidine cpm of eight concentrations 0.02 to 50 μg/ml, hydrohalide salts. It counts as cell-based, mouse (male C57B1/6). The text has this: The immune regulant activity of the compounds of the present invention may be determined by such pharmacological tests as the stimulation in vitro of lymphocyte proliferation of murine thymus cells cultured in the presence of Concanavalin A (Con A), employing the general evaluation procedure of V. J. Merluzzi et. al., see Journal of Clinical and Experimental Immunology, Volume 22, page 486 (1975).
The immune regulant activity of the aminothiazoles described in Examples 2, 3, 4, 6, 7, 8, 10 and 11 was evaluated by determining their ability to stimulate, in vitro the lymphocyte proliferation of murine thymus cells cultured in the presence of Concanavalin A (Con A) by employing the procedure of V. J. Merluzzi et. al., as essentially described in the Journal of Clinical and Experimental Immunology, Vol. 22, p. 486 (1975). The cells were derived from male C57B1/6 mice of from 6-8 weeks age, purchased from the Jackson Laboratories of Bar Harbor, Maine and the Con A was obtained from Sigma Chemicals of St. Louis, Mo. Each cell culture (consisting of 0.10 ml thymus cells stock solution, 0.05 ml of Con A stock solution and 0.05 ml of drug solution) was performed in quadruplicate and cellular proliferation was measured, after 48 hours of incubation at 37° C., by pulsing each culture with ^3 H-thymidine (0.01 ml of specific activity 1.9 C/mM, obtained from Schwarz-Mann, Inc. of Orangeburg, N.Y.) and then determining the incorporation of ^3 H-thymidine into cellular deoxyribonucleic acid (DNA) by an assessment of radioactivity using a liquid scintillation counter. […] These quadruplicate determinations are employed at eight different concentrations of drugs in the range 0.02 to 50 μg/ml. The highest cpm value obtained is employed in the scoring system.

For `Fc1ccc(-c2csc(NCc3cccs3)n2)cc1` [2-thenyl, 4-fluorophenyl, hydrogen, HBr, 2-thenylamino-4-(p-fluorophenyl)-thiazole], the “% Inhibition of edema” value in test [1] is reported as 49%. As to `Br.Cc1sc(NCCc2ccccc2)nc1-c1ccccc1` [Example 3, 2-phenethylamino-4-phenyl-5-methylthiazole hydrobromide], the LSA activity entry in the test with murine thymus cells is recorded as “+++ (those having an activity (27,000±1,000 cpm) greater than levamisole were scored as +++)”.

`Fc1ccc(-c2csc(NCc3cccs3)n2)cc1` [Example 7, 2-thenylamino-4(p-fluorophenyl)-thiazole hydrochloride]: the LSA activity entry with murine thymus cells was “+++ (those having an activity (27,000±1,000 cpm) greater than levamisole were scored as +++)”. The same measure, in the same setting: in the case of `Br.Cc1sc(NCc2ccco2)nc1-c1ccccc1` [Example 10, 2-furfurylamino-5-methyl-4-phenyl-thiazole hydrobromide] it was “+++ (those having an activity (27,000±1,000 cpm) greater than levamisole were scored as +++)”. With `COc1ccc(CCNc2nc(-c3ccc(F)cc3)cs2)cc1` [2-(p-methoxyphenethylamino)-4-(p-fluorophenyl)-thiazole], the “% Inhibition of edema” value in test [1] was determined as 29%. Regarding `c1ccc(-c2csc(NCc3cccs3)n2)cc1` [Example 6, 2-thenylamino-4-phenyl-thiazole hydrobromide], in the test on murine thymus cells, the LSA activity entry is recorded as “+++ (those having an activity (27,000±1,000 cpm) greater than levamisole were scored as +++)”.

Take `c1ccc([C@H]2CN3CCSC3=N2)cc1` [levamisole, reference compound]: in the test on murine thymus cells (levamisole standard, drug level with maximum activity), the “average counts per minute of 3H-thymidine incorporated (LSA activity)” value is recorded as 22,000±900 cpm.

As for `Br.c1ccc(CCNc2nc(-c3ccccc3)cs2)cc1` [Example 2, 2-phenethylamino-4-phenyl-thiazole hydrobromide], the “% Inhibition of edema” value in test [1] was 47%. The LSA activity entry with murine thymus cells is “+++ (those having an activity (27,000±1,000 cpm) greater than levamisole were scored as +++)”.
